In brackets after ≈: the same amount, converted by molar mass. Where two headings read alike, the source gives them in different places.
Assays:
Hymenolepis nana = assay: Test for anthelminthics, cestodes (Hymenolepis nana); assay type: in vivo; set-up: Percentage of activity: concentration or dose not given beside the values; conditions: number of subjects 10
Excerpt: (§1) Biological tests have been performed with a great number of compounds of formula (I) using the following techniques: (1) Test for amoebicidal activity described by R. CAVIER, Ann. pharm. franc., 1960, 18, pages 583-589 and by R. CAVIER, and J. CENAC, Bull. Soc. Path. exot. 1972, 65, pages 399-404. (2) Test for trichomonacidal activity described by R. CAVIER and P. BUOT, Ann. pharm. franc., 1964, 22, pages 211-216 and by R. CAVIER and J. CENAC, Semaine des Hopitaux, 1972, 48, pages 391-394). (3) Tests for anthelminthics described for nematodes (such as Syphacia obvelata) by R. CAVIER, Bull. Soc. Path. exot., 1962, 55, pages 412-417 and, for cestodes (such as Hymenolepis nana), by R. CAVIER, Ann. pharm. franc., 1956, 14, pages 545-552 and by R. CAVIER and M. J. NOTTEGHEM, Ann. pharm. franc. 1968, 28, pages 603-606.

Syphacia obvelata = assay type: in vivo; set-up: Percentage of activity: concentration or dose not given beside the values; conditions: for Number of dead subjects (+): in vivo
Excerpt: as §1

[1] = tested on: Trichophyton mentagrophytes; assay: Determination of fungistatic doses, T.m.; assay type: cell-based; conditions: liquid Sabouraud medium, 25°C, 10 days; for MIC: Trichophyton mentagrophytes, 240 h, read-out: fungistatic dose, T.m
Method: (§2) (4) Method for determining fungistatic doses:
(§3) A liquide Sabouraud medium having the following composition is used:
(§4) If necessary, the pH is adjusted at 6.4 and the medium is sterilized.
(§5) The compounds are dissolved in dimethylformamide to which polyethylene glycol is sometimes added. From the mother-liquor, successive diluted solutions are prepared in the liquid Sabouraud medium, so as to obtain concentrations of 1, 3, 10, 30 100 and […] per ml. For the first dilution, one should not add more than 10% of the mother-liquor to the Sabouraud medium. Subsequently 9 ml per tube of the various solutions in the liquid Sabouraud medium are distributed.
(§6) Reference tubes corresponding to the highest solvent concentrations are also prepared.
(§7) Cultures of the various dermatophyte strains on Sabouraud gelose medium are prepared. From 1 to 2 months old cultures, homogeneous suspensions of said cultures in the liquid Sabouraud medium are prepared, the obtained suspensions being stirred in the presence of glass pearls having a light transmission of about 40%.
(§8) One drop of said suspension is introduced in the tubes containing the various concentrations of the compound to be tested.
(§9) at 25°C ± 2°C in the dark
(§10) 10 days of incubation for dermatophytes.

[2] = tested on: Staphylococcus aureus 209 P; assay: Determination of bacteriostatic doses, S. 209 P; assay type: cell-based; conditions: gelose medium, 37°C, 24 hours; for MIC: Staphylococcus aureus, 209P, read-out: bacteriostatic dose, S. 209 P
Method: (§11) (5) Method for determining bacteriostatic doses
(§12) A common gelose medium of the following composition is used.
(§13) The pH is adjusted at 7.2 and the medium is sterilized during 30 minutes at 120°C.
(§14) The same method as for the determination of fungistatic doses is used, except that the various dilutions of each compound are added to the gelose medium, the solvent concentration never exceeding 3%. Tubes containing […] of the compounds per ml are prepared.
(§15) Cultures of each strain in the liquid medium are prepared and, after 24 hours of incubation at 37°C, dilutions of these cultures in ordinary broth are prepared as follows:
Staphylococcus aureus 209 P
(§16) By means of these dilutions, scratches of a length of 4 to 5 cm are made on the previously dried surface of the gelose medium to which various amounts of the compound to be tested have been added.

Enterococcus 9790 = assay: Determination of bacteriostatic doses, E. 9790; assay type: cell-based; conditions: gelose medium, 37°C, 24 hours; for MIC: Enterococcus, 9790, read-out: bacteriostatic dose, E. 9790
Method: as §11, §12, §13, §14, §15, §16

Epidermo flocosum = assay: Determination of fungistatic doses, E.f.; assay type: cell-based; conditions: liquid Sabouraud medium, 25°C, 10 days; for MIC: 240 h, read-out: fungistatic dose, E.f.
Method: as §2, §3, §4, §5, §6, §7, §8, §9, §10

[3] = tested on: Escherichia coli OIII B 4; assay: Determination of bacteriostatic doses, O.III B 4; assay type: cell-based; conditions: gelose medium, 37°C, 24 hours
Method: as §11, §12, §13, §14, §15
Escherichia coli OIII B 4
as §16

Microsporum audouini = assay: Determination of fungistatic doses, M.a.; assay type: cell-based; conditions: 240 h, liquid Sabouraud medium, 25°C, 10 days, read-out: fungistatic dose, M.a.
Method: as §2, §3, §4, §5, §6, §7, §8, §9, §10

Proteus vulgaris 8181 = assay: Determination of bacteriostatic doses, 8181; assay type: cell-based; conditions: gelose medium, 37°C, 24 hours, strain 8181, read-out: bacteriostatic dose, (8181) printed in column P. morg.
Method: as §11, §12, §13, §14, §15, §16

[4] = tested on: Shigella dysenteriae 3410; assay: Determination of bacteriostatic doses, S. 3410; assay type: cell-based; conditions: for MIC: Shigella dysenteriae, 3410, 24 h, read-out: bacteriostatic dose, S. 3410
Method: as §11, §12, §13, §14, §15
Shigella dysenteriae 3410
as §16

Trichomonas vaginalis = assay: Test for trichomonacidal activity; assay type: cell-based; conditions: for minimal effective concentration: Trichomonas vaginalis, read-out: Trichomonas vaginalis starting activity
Excerpt: as §1

Entomoeba dysenteriae = assay: Test for amoebicidal activity; assay type: cell-based
Excerpt: as §1

[5] = tested on: Proteus morganii IP 53185; assay: Determination of bacteriostatic doses, P. morg.; assay type: cell-based; conditions: gelose medium, 37°C, 24 hours
Method: as §11, §12, §13, §14, §15
Proteus morganii IP 53185
as §16

[6] = tested on: Pseudomonas aeruginosa 8194; assay: Determination of bacteriostatic doses, Pseudo 8194; assay type: cell-based; conditions: gelose medium, 37°C, 24 hours
Method: as §11, §12, §13, §14, §15
Pseudomonas aeruginosa 8194
as §16

Microsporum felineum = assay: Determination of fungistatic doses, M.f.; assay type: cell-based; conditions: liquid Sabouraud medium, 25°C, 10 days
Method: as §2, §3, §4, §5, §6, §7, §8, §9, §10

in vivo [7] = conditions: mouse, po, orally administered to mice
Method: The LD50 of compounds PH 6099 and 5927, when orally administered to mice, is of more than 4000 mg/kg.

Trichophyton rubrum = assay: Determination of fungistatic doses, T.r.; assay type: cell-based; conditions: 240 h, liquid Sabouraud medium, 25°C, 10 days, read-out: fungistatic dose, T.r.
Method: as §2, §3, §4, §5, §6, §7, §8, §9, §10

in vivo [8] = conditions: mouse, ip, intraperitoneal administration to mice, read-out: acute toxicity (LD50)
fungi = assay: Activity against fungi; assay type: cell-based; conditions: in words
Method: as §2, §3, §4, §5, §6, §7, §8, §9, §10

bacteria = assay: Activity against bacteria; assay type: cell-based; conditions: in words
Method: as §11, §12, §13, §14, §15, §16

[9] = Syphacia obvelata, number of subjects 10

Compound	Number of dead subjects (+) (Hymenolepis nana)	Number of subjects from which the parasite has been eradicated (D) (Hymenolepis nana)	Percentage of activity (Hymenolepis nana) [%]	Percentage of activity (Syphacia obvelata; [9]) [%]	Number of dead subjects (+) (Syphacia obvelata)	MIC [1] [µg/mL]	MIC [2] [µg/mL]	MIC (Epidermo flocosum) [µg/mL]	also measured
O=C(COc1cc(Cl)ccc1Cl)Nc1ncc([N+](=O)[O-])s1 [PH 6159]	0	2	20	0	0	30 (≈ 86.2 µM)	–	–	–
Cc1cc(Cl)c(OCC(=O)Nc2ncc([N+](=O)[O-])s2)cc1C [PH 6305]	0	0	0	10	0	–	–	–	–
O=C(COc1c(F)c(F)c(F)c(F)c1F)Nc1ncc([N+](=O)[O-])s1 [PH 6168]	0	2	20	0	0	1 (≈ 2.71 µM)	10 (≈ 27.1 µM)	1 (≈ 2.71 µM)	MIC (Enterococcus 9790): 10 µg/mL (≈ 27.1 µM); MIC ([3]; Escherichia coli, OIIIB4, read-out: bacteriostatic dose, O.III B 4): 300 µg/mL (≈ 813 µM); MIC (Microsporum audouini): 3 µg/mL (≈ 8.13 µM); MIC (Proteus vulgaris 8181): 300 µg/mL (≈ 813 µM); MIC [4]: 300 µg/mL (≈ 813 µM)
Cc1cc(OCC(=O)Nc2ncc([N+](=O)[O-])s2)ccc1Cl [PH 6314]	0	0	0	0	0	–	3 (≈ 9.15 µM)	–	minimal effective concentration (Trichomonas vaginalis): 2.5 µg/mL
2-(2'-trifluoromethyl-3'-methylphenoxyacetamido)-5-nitrothiazole [PH 6306]	0	0	0	0	0	–	–	–	bacteriostatic dose, S. 209 P [2]: 10 µg/mL; Entomoeba dysenteriae starting activity (Entomoeba dysenteriae): 5 mμ/ml; bacteriostatic dose, P. morg. [5]: 0 µg/mL; bacteriostatic dose, E. 9790 (Enterococcus 9790): 100 µg/mL; Number of subjects from which the parasite has been eradicated (D) (Syphacia obvelata; [9]): 0; bacteriostatic dose, Pseudo 8194 [6]: 0 µg/mL; fungistatic dose, E.f. (Epidermo flocosum): 30 µg/mL; fungistatic dose, M.f. (Microsporum felineum): 10 µg/mL; fungistatic dose, T.m [1]: 1 µg/mL; bacteriostatic dose, O.III B 4 [3]: 0 µg/mL; bacteriostatic dose, S. 3410 ([4]; gelose medium, 37°C, 24 hours): 0 µg/mL
O=C(COc1ccc(Cl)cc1Cl)Nc1ncc([N+](=O)[O-])s1 [PH 6091]	0	3	30	20	0	3 (≈ 8.62 µM)	3 (≈ 8.62 µM)	1 (≈ 2.87 µM)	MIC (Microsporum felineum; Microsporum, 240 h, read-out: fungistatic dose, M.f.): 30 µg/mL (≈ 86.2 µM)
Cc1cc(OCC(=O)Nc2ncc([N+](=O)[O-])s2)c(C(C)C)cc1Cl [PH 6099]	0	4	40	20	0	–	3 (≈ 8.11 µM)	–	MIC (Enterococcus 9790): 300 µg/mL (≈ 811 µM); LD50 (in vivo [7]): > 4000 mg/kg; minimal effective concentration (Trichomonas vaginalis): 100 µg/mL; MIC (Microsporum audouini): 0.1 µg/mL (≈ 0.27 µM); MIC (Trichophyton rubrum): 2 µg/mL (≈ 5.41 µM); MIC [4]: 300 µg/mL (≈ 811 µM); LD50 (in vivo [8]): ~200 mg/kg
O=C(COc1ccc(Cl)cc1)Nc1ncc([N+](=O)[O-])s1 [PH 5927]	0	0	0	30	0	30 (≈ 95.6 µM)	100 (≈ 319 µM)	10 (≈ 31.9 µM)	LD50 (in vivo [7]): > 4000 mg/kg; LD50 (in vivo [8]): > 4500 mg/kg
O=C(COc1ccccc1)Nc1ncc([N+](=O)[O-])s1 [2-phenoxyacetamido-5-nitro-thiazole]	–	–	–	–	–	–	–	–	activity against Entomoeba dysenteriae (Entomoeba dysenteriae; in words): no activity; activity against fungi (fungi): no activity; activity against bacteria (bacteria): no activity; activity against Trichomonas vaginalis (Trichomonas vaginalis; in words): no activity
O=C(COc1ccc(Br)cc1)Nc1ncc([N+](=O)[O-])s1 [PH 6092]	0	1	10	10	0	100 (≈ 279 µM)	10 (≈ 27.9 µM)	–	minimal effective concentration (Trichomonas vaginalis): 100 µg/mL
O=C(COc1cc(C(F)(F)F)cc(C(F)(F)F)c1)Nc1ncc([N+](=O)[O-])s1 [PH 6167]	0	7	70	40	0	1 (≈ 2.41 µM)	3 (≈ 7.22 µM)	1 (≈ 2.41 µM)	MIC (Enterococcus 9790): 10 µg/mL (≈ 24.1 µM)
O=C(COc1ccc(F)cc1)Nc1ncc([N+](=O)[O-])s1 [PH 6160]	0	0	0	0	0	4 (≈ 13.5 µM)	10 (≈ 33.6 µM)	1 (≈ 3.36 µM)	MIC (Microsporum audouini): 4 µg/mL (≈ 13.5 µM); MIC (Trichophyton rubrum): 4 µg/mL (≈ 13.5 µM); MIC [4]: 100 µg/mL (≈ 336 µM)

Source: US3957812A, “Derivatives of 2-phenoxyacetamido-5-nitro-thiazole” (priority 1973, dated 1976)
